Laboratory results: patent publication EP3210469A1, “USE OF SUBSTITUTED THIO-1,2,4-TRIAZOLES FOR INCREASING STRESS TOLERANCE IN PLANTS” (Bayer CropScience AG, priority 2016, dated 2017)
One block for each compound: values may come before it.

Legend:
Brassica napus = assay: Drought stress greenhouse test, in vivo Part A (spray application, visual rating vs stressed control plants); set-up: key: 0: kein Effekt; +: leicht positiver Effekt; ++: deutlich positiver Effekt; +++: stark positiver Effekt; settings: Trockenstress, Dosierung 250 g/ha, 600 l/ha water, mean rating of 3 pots
Source text: (§1) Samen von mono- bzw. dikotylen Kulturpflanzen wurden in Plastiktöpfen in sandigem Lehmboden ausgesät, mit Erde oder Sand abgedeckt und im Gewächshaus unter guten Wachstumsbedingungen angezogen. Die Behandlung der Versuchspflanzen erfolgte im frühen Laubblattstadium (BBCH10 - BBCH13). Zur Gewährleistung einer uniformen Wasserversorgung vor Stressbeginn wurden die bepflanzten Töpfe vor Substanzapplikation durch Anstaubewässerung mit Wasser versorgt.
(§2) Die in Form von benetzbaren Pulvern (WP) formulierten erfindungsgemässen Verbindungen wurden als wässrige Suspension mit einer Wasseraufwandmenge von umgerechnet 600 I/ha unter Zusatz von 0,2% Netzmittel (z.B. Agrotin) auf die grünen Pflanzenteile gesprüht. Unmittelbar nach Substanzapplikation erfolgte die Stressbehandlung der Pflanzen.
(§3) Der Trockenstress wurde durch langsames Abtrocknen unter folgenden Bedingungen induziert: • "Tag": 14 Stunden beleuchtet bei ~ 26-30°C • "Nacht": 10 Stunden ohne Beleuchtung bei ~ 18-20°C.
(§4) Die Dauer der jeweiligen Stressphasen richtete sich hauptsächlich nach dem Zustand der gestressten Kontrollpflanzen. Sie wurde (durch Wiederbewässerung und Transfer in ein Gewächshaus mit guten Wachstumsbedingungen) beendet, sobald irreversible Schäden an den gestressten Kontrollpflanzen zu beobachten waren.
(§5) Nach Beendigung der Stressphase folgte eine ca. 4-7 tägige Erholungsphase, während der die Pflanzen abermals unter guten Wachstumsbedingungen im Gewächshaus gehalten wurden. Die Dauer der Erholungsphase richtete sich hauptsächlich danach, wann die Versuchspflanzen einen Zustand erreicht hatten, der eine visuelle Bonitur potenzieller Effekte ermöglichte, und war daher variabel.
(§6) Wenn dieser Zeitpunkt erreicht war, wurde das Erscheinungsbild der mit Testsubstanzen behandelten Pflanzen im Vergleich zu den gestressten Kontrollpflanzen nach folgenden Kategorien erfasst:
(§7) Um auszuschliessen, dass die beobachteten Effekte von der ggf. fungiziden oder insektiziden Wirkung der Testverbindungen beeinflusst wurden, wurde zudem darauf geachtet, dass die Versuche ohne Pilzinfektion oder Insektenbefall abliefen.
(§8) In jedem Versuch wurden pro Kultur und Dosierung Pflanzen in 3 Töpfen behandelt und separat ausgewertet. Die in den unten stehenden Tabellen A-1 bis A-3 angegebenen Werte für die erhaltenen Effekte stellen Mittelwerte aus den erhaltenen Bonituren dar.
(§9) Wirkungen ausgewählter Verbindungen der allgemeinen Formel (I) unter Trockenstress: Tabelle A-1

Zea mays = assay: as above; set-up: key: 0: kein Effekt; +: leicht positiver Effekt; ++: deutlich positiver Effekt; +++: stark positiver Effekt; settings: Trockenstress, 600 l/ha water, mean rating of 3 pots
Source text: as §1, §2, §3, §4, §5, §6, §7, §8, §9

Triticum aestivum = assay: as above; set-up: key: 0: kein Effekt; +: leicht positiver Effekt; ++: deutlich positiver Effekt; +++: stark positiver Effekt; settings: Trockenstress, 600 l/ha water, mean rating of 3 pots
Source text: as §1, §2, §3, §4, §5, §6, §7, §8, §9

[1] = target: T1, Phosphatase ABI1 über den Co-Regulator RCAR11/PYR1 (Arabidopsis thaliana, UniProt O49686+P49597); assay: In vitro ABI1 phosphatase inhibition assay via co-regulator RCAR11/PYR1 (MUP dephosphorylation, fluorescence); format: biochemical; settings: Konzentration 5mM of the substance in DMSO and water; 20 min at 35 °C; MUP substrate, emission 460 nm
T1 sequence (O49686 1-191): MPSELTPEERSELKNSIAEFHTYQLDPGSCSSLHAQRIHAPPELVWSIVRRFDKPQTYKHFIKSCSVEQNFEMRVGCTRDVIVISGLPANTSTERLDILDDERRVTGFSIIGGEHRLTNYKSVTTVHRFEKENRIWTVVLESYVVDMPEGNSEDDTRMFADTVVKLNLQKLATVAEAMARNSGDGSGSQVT
T1 sequence (P49597 1-434): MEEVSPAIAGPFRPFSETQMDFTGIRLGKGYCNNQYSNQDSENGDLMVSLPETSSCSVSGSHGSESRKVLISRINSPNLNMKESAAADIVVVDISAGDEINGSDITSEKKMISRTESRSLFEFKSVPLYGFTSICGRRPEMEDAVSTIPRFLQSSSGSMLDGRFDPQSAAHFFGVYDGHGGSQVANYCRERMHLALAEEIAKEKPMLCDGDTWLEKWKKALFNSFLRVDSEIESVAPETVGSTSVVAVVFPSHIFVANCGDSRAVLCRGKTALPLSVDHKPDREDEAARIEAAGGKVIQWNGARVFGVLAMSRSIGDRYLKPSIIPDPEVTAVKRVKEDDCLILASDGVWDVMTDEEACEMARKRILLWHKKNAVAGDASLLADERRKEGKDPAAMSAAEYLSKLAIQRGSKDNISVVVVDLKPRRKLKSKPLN
Source text: Effekte des Phytohormons Abscisinsäure (ABA) auf das Verhalten von Pflanzen unter abiotischem Stress und der Wirkmechanismus von ABA sind in der Literatur beschrieben (vgl. Abrams et al, WO97/23441, Park et al. Science, 2009, 324, 1068; Grill et al. Science, 2009, 324, 1064; Tanokura et al. Biophysics, 2011, 7, 123; Schroeder et al. Plant J. 2010, 61, 290). Daher kann man mit Hilfe eines geeigneten in vitro-Testsystems eine Korrelation zwischen der Wirkung von ABA und der Stressantwort einer Pflanze unter abiotischem Stress ableiten. Unter Wassermangel (Trockenstress) bilden Pflanzen das Phytohormon Abscisinsäure (ABA). Dieses bindet mit einem Co-Regulator (Regulatory Component of ABA-Receptor = RCAR nach Grill et al. Science, 2009, 324, 1064 oder PYR/PYL nach Cutler et al. Science, 2009, 324, 1068) an eine Phosphatase (z.B. ABI1, eine Typ 2C Proteinphosphatase, auch als PP2C abgekürzt) und hemmt diese in ihrer Aktivität. In der Folge wird eine "downstream" Kinase (z.B. SnRK2) nicht mehr dephosphoryliert. Diese somit aktive Kinase schaltet über Phosphorylierung von Transkriptionsfaktoren (z.B. AREB/ABF, vgl. Yoshida et al Plant J. 2010, 61, 672) ein genetisches Schutzprogramm zur Erhöhung der Trockenstresstoleranz an.
In dem im Folgenden beschriebenen Assay wird die Hemmung der Phosphatase ABI1 über den Co-Regulator RCAR11/PYR1 aus Arabidopsis thaliana genutzt. […]

SMILES: CCn1c(SCc2ccc(C#N)cc2)nnc1-c1ccc(Cl)cc1 [B6-63, 3-(4-Chlorphenyl)-4-ethyl-5-[(4-cyanobenzyl)-sulfanyl]-4H-1,2,4-triazol]
Effekt (BRSNS) (Brassica napus): +++ | Effekt (ZEAMX) (Zea mays; Dosierung 250 g/ha): +++

SMILES: Fc1ccc(CSc2nnc(-c3ccc(Cl)cc3)n2C2CC2)cc1 [D6-13, 3-(4-Chlorphenyl)-4-cyclopropyl-5-[(4-fluorbenzyl)-sulfanyl]-4H-1,2,4-triazol]
Effekt (TRZAS) (Triticum aestivum; Dosierung 25 g/ha): ++ | Effekt (ZEAMX) (Zea mays; Dosierung 25 g/ha): +++

ABI1 Inhibition [1]: ++++ (Inhibition ≥ 90 %)
SMILES: CC(C=CC1(O)C(C)=CC(=O)CC1(C)C)=CC(=O)O (stereo not shown) [Abscisinsäure]

SMILES: O=C(CSc1nnc(-c2ccc(Cl)cc2)n1C1CC1)Nc1ccccc1Cl [D6-726]
Effekt (TRZAS) (Triticum aestivum; Dosierung 250 g/ha): ++ | Effekt (ZEAMX) (Zea mays; Dosierung 250 g/ha): +++
